Test results: ChEMBL document CHEMBL5576083, “Structure-Based Design and Synthesis of Covalent Inhibitors for Deubiquitinase and Acetyltransferase ChlaDUB1 of Chlamydia trachomatis” (J Med Chem, 2024)
In brackets after ≈: the same amount, converted by molar mass. Activity calls are given as the source filed them. The calls are words filed in the database; no cut-off is given here.

Experiments:
[1] = Inhibition of Chlamydia trachomatis DUB2 expressed in Escherichia coli Rosetta 2 (DE3) cells using Ub-Rh110Gly as fluorogenic substrate preincubated for 1 hr followed by substrate addition by plate reader analysis
Chlamydia trachomatis [2] = experiment: Antimicrobial activity against Chlamydia trachomatis serovar L2 infected in human HeLa cells assessed as reduction in microbial progeny at 3.13 ug/ml measured after 48 hrs of post-infection by immunofluorescence analysis; assay type: functional; parameters: scale not given: the % may be the effect or the level left; settings: dose 3.13 µg/ml
Chlamydia trachomatis [3] = experiment: Antimicrobial activity against Chlamydia trachomatis serovar L2 infected in human HeLa cells assessed as reduction in microbial progeny at 1.56 ug/ml measured after 24 hrs of post-infection by immunofluorescence analysis; assay type: functional; settings: dose 1.56 µg/ml
Chlamydia trachomatis [4] = experiment: Antimicrobial activity against Chlamydia trachomatis serovar L2 infected in human HeLa cells assessed as reduction in inclusion area at 3.13 ug/ml measured after 24 hrs of post-infection by microscopic analysis; assay type: functional; settings: dose 3.13 µg/ml
Chlamydia trachomatis [5] = experiment: Anti-chlamydial activity against Chlamydia trachomatis serovar L2 infected in human HEp-2 cells assessed as fold change in inhibition of chlamydial inclusion incubated for 24 hrs by Alexa488/DAPI staining based immunofluorescence assay relative to doxycycline; assay type: functional
[6] = biological target: T1, OTU domain-containing protein 3 (Homo sapiens) (UniProt Q5T2D3); experiment: Inhibition of GST-tagged human OTUD3 using Ub-Rh110Gly as fluorogenic substrate at 40 uM preincubated for 1 hr followed by substrate addition by plate reader analysis
T1 sequence (whole entry): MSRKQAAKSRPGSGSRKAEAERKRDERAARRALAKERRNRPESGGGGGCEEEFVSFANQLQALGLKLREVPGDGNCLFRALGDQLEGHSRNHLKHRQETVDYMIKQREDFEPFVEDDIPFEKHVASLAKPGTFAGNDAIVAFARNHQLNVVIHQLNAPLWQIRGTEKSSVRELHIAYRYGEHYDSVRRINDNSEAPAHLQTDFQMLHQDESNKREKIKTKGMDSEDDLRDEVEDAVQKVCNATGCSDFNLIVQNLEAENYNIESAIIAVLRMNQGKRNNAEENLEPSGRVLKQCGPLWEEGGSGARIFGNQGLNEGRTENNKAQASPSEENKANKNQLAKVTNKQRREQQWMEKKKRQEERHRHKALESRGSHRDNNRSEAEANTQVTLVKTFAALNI

[7] = biological target: T2, Ubiquitin thioesterase OTU1 (Homo sapiens) (UniProt Q5VVQ6); experiment: Inhibition of GST-tagged human OTUD2 using Ub-AMC as substrate at 40 uM preincubated for 1 hr followed by substrate addition by plate reader analysis
T2 sequence (whole entry): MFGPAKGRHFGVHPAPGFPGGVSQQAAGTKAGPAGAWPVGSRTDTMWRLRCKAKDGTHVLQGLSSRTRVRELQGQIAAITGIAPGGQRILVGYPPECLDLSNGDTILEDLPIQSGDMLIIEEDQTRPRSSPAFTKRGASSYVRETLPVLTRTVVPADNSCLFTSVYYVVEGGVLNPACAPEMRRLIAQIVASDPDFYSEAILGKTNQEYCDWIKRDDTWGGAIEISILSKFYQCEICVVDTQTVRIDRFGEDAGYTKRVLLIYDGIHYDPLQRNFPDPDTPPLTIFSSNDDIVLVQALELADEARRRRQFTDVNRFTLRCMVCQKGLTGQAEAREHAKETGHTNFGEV

Chlamydia trachomatis [8] = experiment: Antimicrobial activity against Chlamydia trachomatis serovar L2 infected in human HEp-2 cells assessed as fold change in inclusion forming unit at 1.56 to 12.5 ug/ml measured at 8 to 48 hrs of post-infection by immunofluorescence based microscopic analysis; assay type: functional; settings: dose 1.56-12.5 µg/ml; time 8-48 hrs
Chlamydia trachomatis [9] = experiment: Inhibition of C-terminal 6His-tagged Chlamydia trachomatis DUB1 (130 to 401 residues) expressed in Escherichia coli Rosetta 2 (DE3) cells using Ub-Rh110Gly as fluorogenic substrate at 40 uM preincubated for 1 hr followed by substrate addition by plate reader analysis
Chlamydia trachomatis [10] = experiment: Anti-chlamydial activity against Chlamydia trachomatis serovar L2 infected in human HEp-2 cells assessed as inhibition of chlamydial inclusion incubated for 24 hrs by Alexa488/DAPI staining based immunofluorescence assay; assay type: functional, organism-based; settings: serovar L2, HEp-2, 24 h
Chlamydia trachomatis [11] = experiment: Antimicrobial activity against Chlamydia trachomatis serovar L2 infected in human HeLa cells assessed as inclusion forming unit at 1.56 to 6.25 ug/ml measured after 24 hrs of post-infection by immunofluorescence based microscopic analysis; assay type: functional; settings: dose 1.56-6.25 µg/ml
[12] = biological target: Ubiquitin carboxyl-terminal hydrolase isozyme L1 (Homo sapiens) (UniProt P09936); experiment: Inhibition of 6His-tagged human UCHL1 using Ub-Rh110Gly as fluorogenic substrate at 40 uM preincubated for 1 hr followed by substrate addition by plate reader analysis
Ubiquitin carboxyl-terminal hydrolase isozyme L1 (Homo sapiens), sequence (P09936 whole entry, looked up): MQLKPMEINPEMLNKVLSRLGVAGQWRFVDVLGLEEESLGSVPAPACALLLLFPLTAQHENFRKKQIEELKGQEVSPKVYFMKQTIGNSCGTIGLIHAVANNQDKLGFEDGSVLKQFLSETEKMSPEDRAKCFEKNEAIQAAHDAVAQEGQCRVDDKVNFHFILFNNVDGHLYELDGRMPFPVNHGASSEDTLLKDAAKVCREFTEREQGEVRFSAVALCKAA

For `N#Cc1ncc(C(=O)NCc2ccc(C(=O)NC34CC5CC(CC(C5)C3)C4)cc2)cn1`, which IC50 [1] is on record?
The IC50 was 15.7 µM.

And the Activity (Chlamydia trachomatis [2])?
Its Activity is 11%.

What about the Activity (Chlamydia trachomatis [3]) of the same compound?
Its Activity is “inactive”.

What about the Activity (Chlamydia trachomatis [4]) of the same compound?
Its Activity is 49.99 um2.

And the “fold change (FC)” value (Chlamydia trachomatis [5])?
The value was 200.

What about the inhibition [6] of the same compound?
The inhibition was “inactive”.

What about the inhibition [7] of the same compound?
Its inhibition is “inactive”.

And the “fold change (FC)” value (Chlamydia trachomatis [8])?
Its value is 2.

What about the inhibition (Chlamydia trachomatis [9]) of the same compound?
The inhibition was “Active”.

And the IC50 (Chlamydia trachomatis [10])?
Its IC50 is 8.52 µg/mL (≈ 20.5 µM).

And the Activity (Chlamydia trachomatis [11])?
Its Activity is 1.075 10^7IFU/ml.

And the inhibition [12]?
Its inhibition is “Active”.
